Reference: ChEMBL document CHEMBL3507680, “University of Dundee, Gates Library screen for HepG2 cell viability”

Assay: Human HepG2 cell viability assay in 384 well format
Format: toxicity, cell-based
Design: dose 125 nL, time 70.5 hour; concentration not given beside the values
Settings: HepG2 cells, read-out: Inhibition

| Structure (SMILES) | cytotoxicity at 70.5 h [%] |
| --- | --- |
| CNS(=O)(=O)c1ccccc1N1CCN(C(=O)C(C)C)CC1 | -5.83 |
| Cc1nn(-c2ncnc3[nH]cnc23)c2c1C(C(C)C)CC(=O)N2 (configuration not stated) | -1.6 |
| O=C(c1ccc2c(c1)OCO2)N1CCCSCC1CN1CCCC1 (configuration not stated) | 0.782 |
| CN(CCCc1cnn(C)c1)C(=O)C1CCOC1 (configuration not stated) | 12.6 |
| CC(C)CC(NC(=O)CN(C)c1cnccn1)c1cccs1 (configuration not stated) | -6.01 |
| CC(C)n1ncc2c1NC(=O)CC21C(=O)Nc2c(Br)cc(Cl)cc21 (configuration not stated) | -14.8 |
| O=C1CC2(CCNCC2)C(=O)N1c1cccc(F)c1 | -0.489 |
| CC(C)CN1CCC2(CCN(Cc3ccsc3)CC2)C1=O | 6.07 |
| Cc1occc1C(=O)Nc1cnn(CCN2CCOCC2)c1 | 16.8 |
| CNC(=O)CN(C)C(=O)c1cc2ccccc2cc1OC | -17.8 |
| CC(C)(C)NC(=O)c1ccc(COCC(F)(F)F)o1 | -4.89 |
| CCn1c(C)cc(C(=O)N2C[C@@H](C(=O)O)[C@H](c3ccccc3)C2)c1C | -2.74 |
| c1coc(CNc2nnc(Cc3ccsc3)o2)c1 | -3.55 |
| COc1cc(C2CC(=O)Nc3c2nc2n3CCCC2)ccc1O (configuration not stated) | -7.4 |
| CN(Cc1ccc(Cl)s1)C(=O)Cn1nc(-c2ccc(F)cc2)oc1=O | -13.3 |
| CCCN(C(=O)CS(=O)(=O)c1ccccc1)c1cccc(C)c1 | -5.44 |
| Cc1cc(C2CCC2)nc(NCC(C)(C)N2CCOCC2)n1 | 15.4 |
| CN(Cc1ccncn1)C(=O)CCc1[nH]nc2c1CCCC2 | -5.7 |
| c1cnc(OCc2nnc3n2CCN(CC2CCOCC2)C3)nc1 | -7.25 |
| CN1CC(=O)N(c2ccsc2)CC12CCN(C(=O)N1CCCC1)C2 (configuration not stated) | -7.42 |
| COc1c(CNC2CCCOc3ccc(F)cc32)c(C)nn1C (configuration not stated) | -2.26 |
| CC(NCc1c(C(C)C)nn(C)c1N(C)C)C(=O)NC1CCCC1 (configuration not stated) | -6.36 |
| Cc1c(C)n(-c2ccccn2)c2nc3c(c(N)c12)CCCC3 | -9.17 |
| CN1CCN(CCCNC(=O)c2nc3ccccc3c(=O)[nH]2)CC1 | -19.4 |

| Structure (SMILES) | cytotoxicity at 70.5 h [%] |
| --- | --- |
| Cc1cc(S(=O)(=O)N2CCCc3cc(Br)ccc32)sc1C(=O)O | -6.91 |
| CC(=O)N1CCCC(c2ccc(N3CCOCC3)cn2)C1 (configuration not stated) | -5.65 |
| CC(=O)NC1Cc2ccc(S(=O)(=O)NCCNc3ccccn3)cc2C1 (configuration not stated) | -4.42 |
| Cc1cc(S(=O)(=O)N2CCC(S(C)(=O)=O)CC2)ccc1F | -0.414 |
| CC(C)c1nc(C2CCCN2CCS(C)(=O)=O)no1 (configuration not stated) | -12.9 |
| COCCO[C@H]1CCN(Cc2ccsc2)[C@H]1Cc1cccnc1 | 24.4 |
| COC(=O)c1ccc2ccn(CC3CCNC3)c(=O)c2c1 (configuration not stated) | -1.63 |
| CCCN(CC1CC1)C(=O)Nc1ccc(N2CCSCC2)cc1C | -8.14 |
| CCn1c(CN2CCN(CCO)CC2)nc2c(F)cccc21 | -4.39 |
| CCOCC1CN(C(=O)c2ccnnc2)Cc2cnn(CC)c21 (configuration not stated) | -6.52 |
| Cn1cc(CN2CCCC(CCc3ccc(F)c(F)c3)C2)cn1 (configuration not stated) | -2.93 |
| CSC(C)(C)CNC(=O)NCCC1CCN(C)CC1 | -3.38 |
| O=C(CC1CCN(c2cccnn2)CC1)Nc1cccnc1 | -6.44 |
| Cc1nccn1C1CCCN(C(=O)c2ccc3nnc(C)n3c2)C1 (configuration not stated) | 14.1 |
| O=C(NC1CC1)C1CCCN1c1ncnc2ccsc12 (configuration not stated) | -9.43 |
| O=C(c1ccc(Cl)s1)N1CCC2(CNS(=O)(=O)c3cnccc3O2)C1 (configuration not stated) | 19.5 |
| O=C(c1cccnc1N1CCN(Cc2ccoc2)CC1)N1CCCCC1 | -0.284 |
| COC(C)(C)CC(C)NCc1nncn1C1CCCCC1 (configuration not stated) | -7.83 |
| CCc1nccn1C1CCCN(C(=O)c2ccc(-n3ccnc3)cc2)C1 (configuration not stated) | -10.5 |
| CCC(NCc1cc[nH]n1)c1nc(C(F)(F)F)cs1 (configuration not stated) | -4.23 |
| CSc1ncnc(NCc2cccs2)c1C#N | -10.7 |
| CC(NC(=O)c1ccc2c(c1)OCC(=O)N2)c1ccccc1F (configuration not stated) | 0.146 |
| CCNC(=O)CN1CCN(c2ccnc3c(F)ccc(F)c23)CC1 | -7.66 |
| NC(=O)CN1CC(c2nc(C3CC3)no2)C1 | -7.4 |

| Structure (SMILES) | cytotoxicity at 70.5 h [%] |
| --- | --- |
| CN(C)C(=O)C1OC2(CCN(C(=O)N(C)C)CC2)c2ccccc21 (configuration not stated) | -19.3 |
| CC1CCCN(C(=O)c2nnn(-c3ccc(C(F)(F)F)cc3)n2)C1 (configuration not stated) | 1.4 |
| CC1(CCC(=O)N2CCC(n3cc(C4(O)CCCC4)nn3)CC2)CC1 | 22.5 |
| O=c1cc(CNCc2ccc3c(c2)OCO3)nc2ccccn12 | -6.34 |
| NC1C=C(C(F)(F)F)NC=C1c1ccc(Cl)cc1 (configuration not stated) | 3.46 |
| O=C(NCCn1nc2ccccn2c1=O)c1sccc1-c1ccccc1 | -5.5 |
| O=C(CN1CCSCC1c1ccccc1)N1CCCC1 (configuration not stated) | 20 |
| CC1COCCN1C(=O)NCCn1ccnc1 (configuration not stated) | -3.25 |
| CCOc1cccc(C(=O)NCCC(=O)Nc2ccncc2)c1 | -19.4 |
| O=S(=O)(NC1CCCCC12OCCO2)c1ccc2c(c1)OCCO2 (configuration not stated) | -7.16 |
| CC(=O)N1CCCN(C(=O)Nc2ccccc2N2CCOC2=O)CC1 | -4.99 |
| Nc1nc(N)c2c(n1)OC1(CCN(C(=O)CC3CCCNC3)CC1)C2 (configuration not stated) | 1.11 |
| CCC(CC)NC(=O)c1ccc2nnc(C3CCN(S(C)(=O)=O)C3)n2c1 (configuration not stated) | 6.79 |
| c1nc2c(c(C3CCOC3)n1)CCN(Cc1ccoc1)CC2 (configuration not stated) | 7.95 |
| O=C(Nc1ccc(Cl)cc1)c1nn(C2CCS(=O)(=O)C2)c2c1CCCC2 (configuration not stated) | -19.1 |
| CC(C)C(C(N)=O)c1cccc(Cl)c1 (configuration not stated) | -3.86 |
| CN1CCCC1c1cc2cccnc2n1Cc1ccc(F)cc1 (configuration not stated) | -5.23 |
| CCc1cccc(N2CCC(NC(=O)c3ccc(=O)[nH]n3)CC2)c1 | -0.843 |
| CN(Cc1ccc(CCC(C)(C)O)cc1)Cc1cccnc1 | -11.5 |
| Cn1cc(NC(=O)Cn2cc(-c3ccccc3)ncc2=O)cn1 | 19.6 |
| CCN(Cc1nc(COC)no1)C(=O)CCNC(=O)c1ccccc1F | 22.4 |
| Clc1ccccc1CN1CCc2nc(C3CCCCN3)ncc2C1 (configuration not stated) | -18.6 |
| CS(=O)(=O)NCc1cncc2c1CCN(C(=O)c1cccnc1)C2 | -5.3 |
| Cc1cnc(N2C(=O)CSC2c2cccs2)s1 (configuration not stated) | 28.2 |

| Structure (SMILES) | cytotoxicity at 70.5 h [%] |
| --- | --- |
| O=C(c1ccc(N2CCCC2)nn1)N1CCCC(n2ccnc2)C1 (configuration not stated) | -5.71 |
| CCN(C)c1ncnc2c1CCN(C(=O)COC)CC2 | -10.8 |
| COCCC(=O)N1CC2(CCN(Cc3ccccc3Cl)CC2)C1 | 12.5 |
| O=C(C1CC1)N1CCCN(c2ncnc3c2CCNCC3)CC1 | -6.41 |
| Cn1cncc1CN1C[C@@H]2OCCN(c3ncccn3)[C@@H]2C1 | -9.56 |
| NC(=O)C(NC(=O)c1cc(Br)c[nH]1)c1ccccc1 (configuration not stated) | 10.8 |
| Cc1noc(C)c1-c1ccc(C2CCCN2C(=O)c2cccnc2)nc1 (configuration not stated) | -4.62 |
| O=C(C1CCC2(CCN(Cc3cccnc3)CC2)CO1)N1CCCC1 (configuration not stated) | -7.42 |
| COc1ccc(OC2CCN(C(=O)CCc3nc(Cl)n[nH]3)CC2)cc1 | -4.51 |
| O=C(Cc1ccc(-n2cccn2)cc1)N1CCN2CCCCC2C1 (configuration not stated) | 3.24 |
| CC1(C)CC(N2Cc3nc(N)ncc3C2=O)CC(C)(C)N1 | -8 |
| Nc1ccc(CC2COc3ccccc3C2)cn1 (configuration not stated) | -5.61 |
| O=C1CCCN1Cc1ccc(C(=O)N2CCCC2c2cccs2)cc1 (configuration not stated) | -6.75 |
| Cc1nnc(CN(C)CCc2nc(-c3cccc(Cl)c3)no2)n1C | -13.1 |
| CC(C)n1ccnc1C1CCN(c2nccc(C(F)(F)F)n2)CC1 | 5.98 |
| COCc1cc(O)nc(C2CCCN(Cc3cccc(Cl)c3Cl)C2)n1 (configuration not stated) | -4.6 |
| Cc1nc(CNCc2cccc(OC34CCCN(CC3)C4)c2)n[nH]1 (configuration not stated) | -3.22 |
| O=C(CCOCC(F)(F)F)NS(=O)(=O)c1cccnc1 | -3.03 |
| COc1ccc(CCNCc2ccco2)cc1OC | -6.05 |
| Cc1nn(C)c(Cl)c1C1CCCN1C(=O)c1ccoc1C (configuration not stated) | -4.13 |
| CS(=O)(=O)N1CCCC12CCCN(c1nccs1)C2 (configuration not stated) | -3.55 |
| CCN(C(=O)COC)C(c1cccnc1)c1ccc2c(c1)CCO2 (configuration not stated) | -2.44 |
| COCC1CN(Cc2ccsc2)Cc2nn(C)cc21 (configuration not stated) | 16.3 |
| COc1cccc(Nc2nc(C3CCCNC3)c3ccccn23)c1 (configuration not stated) | -7.29 |

| Structure (SMILES) | cytotoxicity at 70.5 h [%] |
| --- | --- |
| CC(C)(CC(=O)Nc1cccc(Oc2ccccn2)c1)C(=O)O | -5.32 |
| CC(C)Oc1ncccc1CNC(=O)N1CCC(C(N)=O)C1 (configuration not stated) | -12.5 |
| COc1ccc(Cl)cc1C(=O)N1CCOC2(CNCCOC2)C1 (configuration not stated) | -0.31 |
| Cc1ocnc1C(=O)N1CCC2(CC1)c1nc[nH]c1CCN2CC(C)C | 27.1 |
| COC(=O)C1CCCN1C(=O)c1ccc(Br)cc1F (configuration not stated) | 12.6 |
| Cc1nccc(NCc2cc3n(n2)CCCN(S(C)(=O)=O)C3)n1 | -3.08 |
| CCC1CCc2c(c3ccccc3[nH]c2=O)O1 (configuration not stated) | 24.6 |
| O=C(CC1CC1)N1CCc2ncc(Cn3cncn3)n2CC1 | -14.1 |
| CN1CCCc2cc(NC(=O)N3CCOC(C(N)=O)C3)ccc21 (configuration not stated) | 3.77 |
| CN(Cc1cc(=O)c(O)co1)C1CCN(c2ccc(F)cc2)CC1 | 22.1 |
| CC(C)c1cc(N2CCC(NS(C)(=O)=O)CC2)n2nccc2n1 | -2.38 |
| CN(C)C(=O)CN1CCOCC2(C1)CN(c1ncccn1)CCO2 (configuration not stated) | 16.4 |
| CCn1nc(C)c(CCn2ccnc2-c2cc3n(n2)CCCNC3)c1C | -3.85 |
| O=C(c1cnc(-c2cccs2)s1)N1CCCC(n2ccnc2)C1 (configuration not stated) | -8.31 |
| CC1N(C)C(=O)COC12CCN(Cc1nccs1)CC2 (configuration not stated) | -9.04 |
| COc1ccnc(N2CCN(C(=O)Cc3ccsc3)CC2)n1 | -8.71 |
| OC1CCN(Cc2c(-c3ccco3)[nH]c3ncccc23)CC1 | -5.94 |
| O=C(CCCc1cn[nH]c1)N1C[C@H](CO)C[C@H](CN2CCCC2)C1 | -5.76 |
| Cc1nc(CN(C)C(=O)c2cc(C)sc2NC(=O)C(C)(C)C)no1 | -11.2 |
| COc1ccc(OCC(=O)NS(=O)(=O)c2ccc(Br)s2)cc1 | 18.9 |
| Cn1cc(-c2ncnc3c2CCN(C(=O)c2cscn2)CC3)cn1 | 22.4 |
